Data on 9 molecules can be found in US20250162986A1, “Compounds and compositions for neurodegenerative diseases” (Universidade Nova de Lisboa, priority 2022, published 2025).

Common to all, as to assay type: cell-based
Test [1] relates to N9 mouse microglia cell line. Description: LPS-induced TNF-α release in microglia cells (ELISA). To be noted: for activity at 5 µM: Mus musculus, Microglia, read-out: TNFα release (Fold-change relative to LPS); for release of TNF-α (FIG. 1): 100 nM, 2, 4 and 6 hours pre-incubation; for attenuation of TNFα release at lower concentrations: at and below 100 nanomolar (data not shown). How it is done: (§1) The “N9” murine microglia cell line was cultured in EMEM (Eagle Minimum Essential Media) supplemented with 10% (v/v) FBS, […] L-glutamine, 1% (v/v) NEAA and maintained at 37° C., 5% (v/v) CO2. Experiments were performed on 24-well plates. Compounds were incubated in cells for the indicated amount of time (2, 4 or 6 hours) before the addition of the indicated inflammatory stimuli (Lipopolysaccharide (LPS) or TNFα:IFNγ).
The experiment was conducted in vitro using N9 mouse microglia cell line. Phenolic metabolites or derived-thereof were pre-incubated for 6 hours at 5 micromolar with microglia cells in cell media. Afterwards cells were washed and incubated with lipopolysaccharides for 24 hours. At the end of this period cell media was collected and the presence of TNF-α analyzed using ELISA, thus showing the results as shown in Table 1.
In an embodiment compounds resorcinol-sulfate and phloroglucinol-sulfate were pre-incubated at 100 nanomolar for 2, 4, 6 hours with the cells in the cell media. Afterwards cells were washed and incubated with lipopolysaccharides for 24 hours. At the end of this period cell media was collected and the presence of TNF-α analyzed using ELISA, thus showing the results as substantially depicted in FIG. 1.

Test [2] deals with LUHMES cells (human dopaminergic cell line). Description: Cell viability and ATP levels after MPP+ oxidative insult. To be noted: 24 hours pre-treatment at 5 μM, then 24 hours MPP+; for ATP levels (FIG. 5B): luciferase; for cell viability (metabolic capacity) (FIG. 5A): resazurin. The procedure: The LUHMES cells (human dopaminergic cell line) were cultured in advanced DMEM-F12 ([…]) at 37° C. with 5% (v/v) CO2. Experiments were performed in 24 well plates. Compounds were incubated for 24 hours before addition of Parkinson inducing toxin MPP+ was added to cells.
The experiment was conducted in vitro using “LUHMES”, human dopaminergic cell line at 37° C. with 5% CO2. Phenolic metabolites were incubated for 24 hours at 5 μM. After this period cells were washed and incubated (or not) with MPP+ ([…]) for 24 hours in order to produce the oxidative insult, that mimics the dopaminergic lesions found in several neurodegenerative diseases, namely in Parkinson's Disease brain. Afterwards cell medium was replaced with new medium including the cell metabolic dyes: resazurin for 2 hours or luciferase for 30 min. Colour development was measured by fluorescence and luminescence respectively, in a Synergy (Biotek) plate reader, thus showing the results as substantially depicted in FIG. 5.

The subject of test [3] is N9 mouse microglia cell line. The experiment in a line: LPS-induced production of multiple cytokines in microglia cells (flow cytometry, LEGENDplex). Conditions: 100 nM, 6 hours pre-incubation, then 24 hours lipopolysaccharides. The procedure:
as §1
The experiment was conducted in vitro using N9 mouse microglia cell line. Phenolic metabolites were pre-incubated for 6 hours in the cell media at the indicated concentration. Afterwards cells were washed and incubated with lipopolysaccharides for 24 hours. At the end of this period cell media was collected and the presence of various cytokines analyzed using flow cytometry (LEGENDplex™ Mouse Macrophage/Microglia Panel), thus showing the results as substantially depicted in FIG. 2.
(In flow cytometry, cells or beads pass a laser one at a time.)

In test [4] the test system is N9 mouse microglia cell line. Description: TNF-α and IFNγ-induced production of multiple cytokines in microglia cells (flow cytometry, LEGENDplex). Conditions: 100 nM, 6 hours pre-incubation, then 24 hours TNF-α 10 nM plus IFNγ 1 nM. How it is done: as §1
The experiment was conducted in vitro using N9 mouse microglia cell line. Phenolic metabolites were pre-incubated for 6 hours in the regular cell media at the indicated concentration. Afterwards cells were washed and incubated with TNF-α 10 nM plus IFNγ 1 nM for 24 hours. At the end of this period cell media was collected and the presence of various cytokines analyzed using flow cytometry (LEGENDplex™ Mouse Macrophage/Microglia Panel), thus showing the results as substantially depicted in FIG. 3.

[5] abbreviates: 5 micromolar, 6 hours pre-incubation, then 24 hours lipopolysaccharides, ELISA.
Where [6] appears, read: then 24 hours lipopolysaccharides.

The structures appear in SMILES notation. Where a name gives a salt, the structure may show the parent alone.

In the case of `Cc1ccc(OS(=O)(=O)O)c(O)c1O` [2,3-dihydroxy-4-methylphenyl hydrogen sulfate], in test [1] (setting [5]), the activity at 5 µM amounted to 45 ± 4%.
With `COc1c(O)cc(C(=O)O)cc1OS(=O)(=O)O` [4-O-methyl gallic acid-3-sulfate], the “TNFα release (Fold-change relative to LPS)” value in test [1] (setting [5]) was 0.50 ± 0.07 Fold-change relative to LPS.
In the case of `COc1cccc(OS(=O)(=O)O)c1O` [2-hydroxy-3-methoxyphenyl hydrogen sulfate], the activity at 5 µM in test [1] (setting [5]) was 65 ± 11%.
Regarding `O=S(=O)(O)Oc1ccc(CO)c(O)c1O` [2,3-dihydroxy-4-(hydroxymethyl)phenyl hydrogen sulfate], the activity at 5 µM in test [1] (setting [5]) is 48 ± 7%.
Turning to `COc1cc(C(=O)O)ccc1OS(=O)(=O)O` [3-methoxy-4-(sulfooxy)benzoic acid], the activity at 5 µM in test [1] (setting [5]) stood at 56 ± 16%.
For the molecule `COc1c(O)cccc1OS(=O)(=O)O` [3-hydroxy-2-methoxyphenyl hydrogen sulfate], in test [1] (setting [5]), the activity at 5 µM was 65 ± 8%.
Regarding `O=S(=O)(O)Oc1cc(O)cc(O)c1` [Phloroglucinol-sulfate, 3,5-dihydroxyphenyl hydrogen sulfate], in test [2], the “ATP levels (FIG. 5B)” value is on record as “protective effects” and the “cell viability (metabolic capacity) (FIG. 5A)” value was “protective effects”. For the same molecule, the “multiple cytokines (G-CSF, TNF-α, IL-6, IL-10, IL-1β, CCL17, IL-12p40, TGFβ1, CCL22, IL18, CXCL1) (FIG. 2)” value in test [3] is on record as “reduction in multiple cytokines”. Besides, the “release of TNF-α (FIG. 1)” value in test [1] (setting [6]) is recorded as “reduction in release of TNF-α”. Moreover, in test [1] (setting [5]), the activity at 5 µM turned out to be 57 ± 6%. In addition, the “attenuation of TNFα release at lower concentrations” value in test [1] was “capability to attenuate TNFα release at lower concentrations”. In addition, the “multiple cytokines (TNF-α, CCL22, IL-10, CCL17, IL-1β, CXCL1, G-CSF, IL-6, IL-18, TGFβ1, IL23, IL-12p40, IL-12p70) (FIG. 3)” value in test [4] is “reduction in multiple cytokines”.
On to `COc1cc(O)cc(OS(=O)(=O)O)c1` [3-hydroxy-5-methoxyphenyl hydrogen sulfate], for which the activity at 5 µM in test [1] (setting [5]) was 57 ± 6%.
Take `O=S(=O)(O)Oc1cccc(O)c1` [Resorcinol-sulfate, 3-hydroxyphenyl hydrogen sulfate]: in test [2], the “ATP levels (FIG. 5B)” value is on record as “protective effects” and the “cell viability (metabolic capacity) (FIG. 5A)” value is listed as “protective effects”. The “multiple cytokines (G-CSF, TNF-α, IL-6, IL-10, IL-1β, CCL17, IL-12p40, TGFβ1, CCL22, IL18, CXCL1) (FIG. 2)” value in test [3] is “reduction in multiple cytokines”. For the same molecule, in test [1] (setting [6]), the “release of TNF-α (FIG. 1)” value was “reduction in release of TNF-α”. The activity at 5 µM in test [1] (setting [5]) was 58 ± 13%. Also, the “attenuation of TNFα release at lower concentrations” value in test [1] is reported as “capability to attenuate TNFα release at lower concentrations”. The “multiple cytokines (TNF-α, CCL22, IL-10, CCL17, IL-1β, CXCL1, G-CSF, IL-6, IL-18, TGFβ1, IL23, IL-12p40, IL-12p70) (FIG. 3)” value in test [4] is given as “reduction in multiple cytokines”.
